Each block holds one molecule with its values, some of them ahead of it.
What was measured:
[1] = biological target: Rho-associated protein kinase 1 (Homo sapiens, UniProt Q13464); assay: Inhibition of ROCK1 (unknown origin)
[2] = biological target: T1, Rho-associated protein kinase 2 (Homo sapiens, UniProt O75116); assay: Inhibition of ROCK2 (unknown origin)
Adenosine receptor A2a [3] = biological target: T2, Adenosine receptor A2a (Homo sapiens, UniProt P29274); assay: Displacement of 2-[2-(4-amino-3-[125I]iodophenyl)ethylamino]adenosine from human recombinant adenosine A2A receptor expressed in HEK293 cells; assay type: cell-based
[4] = biological target: T1, Rho-associated protein kinase 2; assay: Inhibition of ROCK2 (unknown origin) using STK2 as substrate after 1 hr
Adenosine receptor A2a [5] = biological target: T2, Adenosine receptor A2a; assay: Displacement of [3H]-[…] from human recombinant adenosine A2A receptor
Adenosine receptor A3 = biological target: T3, Adenosine receptor A3 (Homo sapiens, UniProt P0DMS8); assay: Antagonist activity at human adenosine A3 receptor
T3 sequence (P0DMS8 whole entry): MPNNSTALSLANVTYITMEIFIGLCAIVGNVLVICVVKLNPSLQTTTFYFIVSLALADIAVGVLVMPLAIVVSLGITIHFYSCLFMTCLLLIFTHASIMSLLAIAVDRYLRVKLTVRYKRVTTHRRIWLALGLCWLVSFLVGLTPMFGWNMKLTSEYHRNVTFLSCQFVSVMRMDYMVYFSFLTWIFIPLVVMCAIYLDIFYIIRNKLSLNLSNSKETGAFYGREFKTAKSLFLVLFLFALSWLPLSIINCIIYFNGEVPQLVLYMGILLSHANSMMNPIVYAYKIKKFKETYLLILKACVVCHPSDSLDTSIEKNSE

T1 sequence (O75116 whole entry): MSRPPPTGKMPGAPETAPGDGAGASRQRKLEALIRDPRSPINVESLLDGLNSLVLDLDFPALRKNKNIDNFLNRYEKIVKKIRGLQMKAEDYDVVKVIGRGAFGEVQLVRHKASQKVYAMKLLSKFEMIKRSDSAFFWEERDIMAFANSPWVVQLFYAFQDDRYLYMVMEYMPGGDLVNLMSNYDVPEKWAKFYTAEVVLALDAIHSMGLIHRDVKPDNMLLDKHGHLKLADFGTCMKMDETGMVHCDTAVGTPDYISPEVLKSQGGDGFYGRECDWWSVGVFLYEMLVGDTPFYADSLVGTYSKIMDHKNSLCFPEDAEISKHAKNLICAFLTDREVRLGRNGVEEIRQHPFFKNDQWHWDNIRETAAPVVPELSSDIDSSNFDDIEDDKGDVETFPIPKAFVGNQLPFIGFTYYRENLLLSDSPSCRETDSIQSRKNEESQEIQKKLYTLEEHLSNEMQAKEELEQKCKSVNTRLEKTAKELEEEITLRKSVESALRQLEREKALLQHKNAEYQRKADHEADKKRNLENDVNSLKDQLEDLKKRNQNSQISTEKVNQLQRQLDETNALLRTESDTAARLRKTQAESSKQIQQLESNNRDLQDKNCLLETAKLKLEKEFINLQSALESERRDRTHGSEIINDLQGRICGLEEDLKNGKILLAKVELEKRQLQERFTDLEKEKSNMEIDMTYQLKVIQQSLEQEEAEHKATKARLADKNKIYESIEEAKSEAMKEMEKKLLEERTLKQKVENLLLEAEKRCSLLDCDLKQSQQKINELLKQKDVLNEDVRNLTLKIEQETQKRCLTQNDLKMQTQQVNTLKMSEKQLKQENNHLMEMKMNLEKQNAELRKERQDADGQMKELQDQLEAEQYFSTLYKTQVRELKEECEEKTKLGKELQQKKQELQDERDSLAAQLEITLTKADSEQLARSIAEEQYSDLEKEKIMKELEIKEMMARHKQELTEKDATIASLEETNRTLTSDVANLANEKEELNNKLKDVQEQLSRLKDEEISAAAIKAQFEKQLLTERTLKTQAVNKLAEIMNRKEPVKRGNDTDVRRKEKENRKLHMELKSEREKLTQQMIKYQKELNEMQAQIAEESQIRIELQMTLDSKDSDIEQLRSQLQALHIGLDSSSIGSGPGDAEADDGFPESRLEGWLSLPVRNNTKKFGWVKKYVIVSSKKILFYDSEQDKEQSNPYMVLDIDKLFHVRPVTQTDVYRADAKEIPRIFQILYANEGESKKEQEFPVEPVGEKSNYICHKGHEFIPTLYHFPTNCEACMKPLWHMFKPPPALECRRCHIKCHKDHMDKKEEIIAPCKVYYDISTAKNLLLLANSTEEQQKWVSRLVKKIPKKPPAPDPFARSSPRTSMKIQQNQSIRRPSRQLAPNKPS
T2 sequence (P29274 whole entry): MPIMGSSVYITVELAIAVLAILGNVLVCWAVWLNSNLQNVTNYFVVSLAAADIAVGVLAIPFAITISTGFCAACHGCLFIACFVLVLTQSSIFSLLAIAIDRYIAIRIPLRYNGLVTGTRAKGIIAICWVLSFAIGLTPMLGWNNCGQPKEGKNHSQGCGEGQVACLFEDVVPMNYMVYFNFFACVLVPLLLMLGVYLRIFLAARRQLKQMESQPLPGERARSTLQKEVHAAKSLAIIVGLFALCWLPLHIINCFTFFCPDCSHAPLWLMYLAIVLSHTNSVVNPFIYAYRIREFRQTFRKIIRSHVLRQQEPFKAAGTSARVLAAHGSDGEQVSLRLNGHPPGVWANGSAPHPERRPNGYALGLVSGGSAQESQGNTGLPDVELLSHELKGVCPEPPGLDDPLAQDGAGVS
Rho-associated protein kinase 1, sequence (Q13464 whole entry): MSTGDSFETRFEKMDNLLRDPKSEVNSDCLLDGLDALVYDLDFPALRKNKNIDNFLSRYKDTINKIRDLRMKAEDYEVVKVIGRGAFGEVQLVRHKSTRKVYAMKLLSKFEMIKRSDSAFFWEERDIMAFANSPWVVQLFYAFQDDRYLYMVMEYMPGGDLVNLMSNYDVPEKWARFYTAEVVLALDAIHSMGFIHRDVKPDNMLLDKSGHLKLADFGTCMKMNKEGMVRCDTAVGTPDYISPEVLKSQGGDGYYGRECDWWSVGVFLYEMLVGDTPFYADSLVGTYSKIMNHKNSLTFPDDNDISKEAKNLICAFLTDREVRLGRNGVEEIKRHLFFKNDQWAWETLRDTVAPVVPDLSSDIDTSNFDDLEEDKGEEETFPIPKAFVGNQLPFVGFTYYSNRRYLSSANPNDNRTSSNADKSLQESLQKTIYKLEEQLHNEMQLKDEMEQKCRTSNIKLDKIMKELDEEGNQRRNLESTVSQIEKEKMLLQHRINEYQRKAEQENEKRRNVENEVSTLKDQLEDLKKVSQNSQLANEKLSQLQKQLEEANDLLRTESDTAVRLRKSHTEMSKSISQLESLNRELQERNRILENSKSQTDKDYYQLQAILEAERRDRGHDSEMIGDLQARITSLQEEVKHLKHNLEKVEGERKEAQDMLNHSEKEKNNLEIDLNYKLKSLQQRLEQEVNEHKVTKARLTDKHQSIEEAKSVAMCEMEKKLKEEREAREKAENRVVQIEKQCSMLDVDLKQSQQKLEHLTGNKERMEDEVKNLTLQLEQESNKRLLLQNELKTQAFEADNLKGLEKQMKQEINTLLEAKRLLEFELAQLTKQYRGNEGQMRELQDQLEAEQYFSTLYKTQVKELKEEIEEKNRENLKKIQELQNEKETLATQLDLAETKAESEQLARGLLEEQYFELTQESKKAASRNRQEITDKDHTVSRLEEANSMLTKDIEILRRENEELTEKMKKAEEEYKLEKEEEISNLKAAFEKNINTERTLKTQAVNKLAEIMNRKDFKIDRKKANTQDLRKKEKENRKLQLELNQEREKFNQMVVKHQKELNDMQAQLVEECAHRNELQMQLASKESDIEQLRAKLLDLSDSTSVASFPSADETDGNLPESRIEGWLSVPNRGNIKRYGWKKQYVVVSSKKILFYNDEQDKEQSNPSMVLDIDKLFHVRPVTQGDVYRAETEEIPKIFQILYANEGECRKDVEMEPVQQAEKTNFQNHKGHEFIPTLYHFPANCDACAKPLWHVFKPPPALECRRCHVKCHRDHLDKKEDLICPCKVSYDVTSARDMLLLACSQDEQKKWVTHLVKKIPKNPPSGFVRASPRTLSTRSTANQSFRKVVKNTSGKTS

Kd (Adenosine receptor A2a [3]): 0.7 nM
SMILES: COC(=O)N1CCC(CC#Cc2nc(N)c3ncn([C@@H]4O[C@H](C(=O)NC5CC5)[C@@H](O)[C@H]4O)c3n2)CC1 [EVODENOSON]

Ki (Adenosine receptor A2a [5]): 31.8 nM
SMILES: CCCCCCC#Cc1nc(N)c2ncn([C@@H]3O[C@H](CO)[C@@H](O)[C@H]3O)c2n1

Ki (Adenosine receptor A3): 910 nM
SMILES: CNC(=O)[C@H]1O[C@@H](n2cnc3c(NCc4cccc(I)c4)nc(Cl)nc32)[C@H](OC(C)=O)[C@@H]1OC(C)=O

Ki (Adenosine receptor A2a [5]): 49.3 nM
SMILES: N#CCCCCC#Cc1nc(N)c2ncn([C@@H]3O[C@H](CO)[C@@H](O)[C@H]3O)c2n1

Second part, the molecule before the results:

SMILES: NCC(C(=O)Nc1ccc2cnccc2c1)c1ccccc1 (stereo not given)
IC50 [1]: 1.2 nM
IC50 [2]: 1.1 nM

SMILES: NC(C(=O)Nc1ccc2cnccc2c1)c1ccccc1 (stereo not given)
IC50 [1]: 6 nM
IC50 [2]: 1.5 nM

SMILES: CN(C)CCOc1cc(-c2cn[nH]c2)ccc1NC(=O)C1COc2ccccc2O1 (stereo not given) [SR-3677]
IC50 [4]: 3 nM

SMILES: C[C@H]1CNCCCN1S(=O)(=O)c1cccc2cncc(F)c12
IC50 [2]: 19 nM

— ChEMBL document CHEMBL3769306, “Discovery of Molecular Therapeutics for Glaucoma: Challenges, Successes, and Promising Directions” (J Med Chem, 2016)
